# Data: patent US8148405B2, “Salt I” (AstraZeneca AB, priority 2005, dated 2012)
# “And” between values parts separate entries of the source, which are not always exact repeats. Equal entries are not always repeated. Structures can show the parent of a compound that is named as a salt. Marks after values point to notes of the source that are not given here.
# What was measured:
# [1] = Evaluation of the deaggregation properties of micronised salt (TSI Aerodynamic Particle Sizer); format: physicochemical
# Procedure: This screening study was intended to give some estimation regarding the deaggregation properties of anhydrous N-{2-[((2S)-3-{[1-(4-chlorobenzyl)piperidin-4-yl]amino}-2-hydroxy-2-methylpropyl)oxy]-4-hydroxyphenyl}acetamide benzoate salt, form B (referred to in the remainder of this example as “Form B salt”. The results were compared to the results from an established product powder, the Pulmicort® Turbuhaler® formulation, which was tested identically.
# Form B salt was micronised in order to obtain a particle size of less than […]. Pulmicort® Turbuhaler® powder was emptied from the Pulmicort® Turbuhaler®. The latter formulation consists of micronised Budesonide powder that is spheronised into small pellets. The micronization of the Form B salt was performed in a spiral jet mill. Within the inner annular space of the jet mill there is a spiral classification. Fine particles will pass through this classification zone and out through a cyclone at the bottom of the mill. The fraction captured in the exhaust filter of the mill was discarded.
# For deaggregation of the powders (both for Pulmicort® Turbuhaler® formulation and the Form B salt), the powders were scrape filled into a simple inhaler device comprising an L-shaped cylindrical channel, comprising a vertical component and a horizontal component.
# A Turbuhaler® mouthpiece was fastened to the end of the horizontal component to promote deaggregation of the powder, and the powder to be tested was placed via the vertical channel into the bend of the channel (i.e. the corner of the L-shaped channel). An airflow pulse (see below) then activated the airflow through the vertical component of the channel, entraining the powder located in the bend, and the air-particle mixture is thereafter moved through the horizontal component of the cylinder and finally passed through the Turbuhaler® mouthpiece.
# After leaving the Turbuhaler® mouthpiece, the aerosol was transferred to a TSI Aerodynamic Particle Sizer (APS®) with Impactor Inlet 3306 set-up where the aerosol cloud was analysed for its aerodynamic properties and fine particle fraction. The APS set-up was arranged in such a way as to allow withdrawal of doses at optional airflows, followed by counting and aerodynamic classification (ca. 0.3-20 μm) of the particles on a particle by particle basis. Briefly, between the USP throat and the 3306 Impacter Inlet, a three-way pneumatic valve and an NGI pre-separator was positioned. In addition, a tube to a vacuum source via a timer-controlled solenoid valve (Triggor Box) was positioned between the valve and the pre-separator in a T-joint fashion. A short airflow pulse is then generated through the inhaler, USP throat, and pre-separator using the Triggor box. After the end of the air pulse, the pneumatic valve switches so that the aerosol cloud in the pre-separator is drawn into the APS via the 3306 Impacter Inlet for aerodynamic assessment.
# Each dose was withdrawn with an airflow pulse of duration 0.4 seconds with maximum airflow at 60 lpm, followed by sampling into the APS instrument. The sampling time in the APS software was set to 20 seconds. The result parameters from the APS were mass median aerodynamic diameter (MMAD), geometric standard deviation (GSD), and a measure of the dose amount (particle counting data converted to mass data using particle density=1) called fine particle dose (FPD).
# The two first doses (for each formulation) were released and measured gravimetrically. The mean value of these gravimetric doses, denoted “metered doses” or loaded dose, were used for normalisation of the (FPD), which gives a measure of the fine particle fraction (FPF). The FPF can therefore be used for direct comparison between the two powder formulations (for the instrument set up used). The limit for fine particles was set to an aerodynamic particle size of 7 μm. Seven and five doses were then analysed with the APS for Pulmicort® Turbuhaler® formulation and for Form B salt, respectively. […]
# [2] = Hygroscopicity determination (vapor sorption, SGA-100); format: physicochemical; settings: room temperature (25° C.)
# Procedure: The weight change of a test sample at room temperature (25° C.) and at 80% relative humidity (RH) were investigated by recording adsorption-desorption isotherms using a symmetric vapor-sorption analyser SGA-100 (VTI Corporation) using different methods, the main features being: a single sorption/desorption cycle from 0 to 90% RH in 10% RH steps with a dm/dt trigger value of 0.002%, (dm/dt=change in mass with time—when the balance stability is within this value the next step is automatically started, however, if those conditions are not achieved there is a default maximum time for each step of 6 hours). Approximately 2 to 10 mg of the test sample was placed in a sample holder and exposed to different relative humidities.
# human CCR1 = molecular target: T1, human CCR1 (Homo sapiens, UniProt P32246); test: Human CCR1 binding assay ([125I] MIP-1α displacement, HEK-CCR1 membranes)
# T1 construct: expressed in transfected cells; membranes
# T1 sequence (P32246 1-355): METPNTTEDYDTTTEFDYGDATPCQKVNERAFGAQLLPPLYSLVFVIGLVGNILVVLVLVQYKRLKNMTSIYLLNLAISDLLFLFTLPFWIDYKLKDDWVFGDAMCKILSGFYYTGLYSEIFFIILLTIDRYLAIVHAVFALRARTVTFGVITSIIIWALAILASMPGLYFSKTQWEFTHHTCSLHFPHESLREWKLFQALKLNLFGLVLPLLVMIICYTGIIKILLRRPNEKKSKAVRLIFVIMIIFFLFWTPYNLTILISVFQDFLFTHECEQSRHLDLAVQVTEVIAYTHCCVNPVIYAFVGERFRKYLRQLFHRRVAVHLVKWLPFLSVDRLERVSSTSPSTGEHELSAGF
# Procedure: HEK293 cells, from ECACC, stably expressing recombinant human CCR1 (HEK-CCR1) were used to prepare cell membranes containing CCR1. […] The concentration of membranes of each batch was adjusted to 10% specific binding of 33 pM [^125I] MIP-1α.
# 100 μL of HEK-CCR1 membranes diluted in assay buffer pH 7.4 (137 mM NaCl (Merck, Cat No 1.06404), 5.7 mM Glucose (Sigma, Cat No G5400), 2.7 mM KCl (Sigma, Cat No P-9333), 0.36 mM NaH2PO4×H2O (Merck, Cat No 1.06346), 10 mM HEPES (Sigma, Cat No H3375), 0.1% (w/v) Gelatine (Sigma, Cat No G2625)) with the addition of 17500 units/L Bacitracin (Sigma, Cat No B 1025) were added to each well of the 96 well filter plate (0.45 μm opaque Millipore cat no MHVB N4550). […] 12 μl assay buffer with 10% DMSO was added to certain wells (without compound) to detect maximal binding (B0).
# 12 μL [^125I] MIP-1α, diluted in assay buffer to a final concentration in the wells of 33 pM, was added to all wells. The plates with lid were then incubated for 1.5 hrs at room temperature. After incubation the wells were emptied by vacuum filtration (MultiScreen Resist Vacuum Manifold system, Millipore) and washed once with 200 μl assay buffer. After the wash, all wells received an addition of 50 μL of scintillation fluid (OptiPhase “Supermix”, Wallac Oy, Turko, Finland). Bound [^125I] MIP-1α was measured using a Wallac Trilux 1450 MicroBeta counter. […]
# [3] = Estimated solubility of the salt in organic solvents; format: physicochemical; settings: for solubility: organic solvent or mixture
# Procedure: (b) The Form B salt described in (a) above was also prepared by dissolving, in a vial, 20% w of a sample of the benzoate salt prepared by the method of Example 1(b) (Form A) in a solvent such as methanol (>20 mg/ml), ethanol (>20 mg/ml), n-propanol (>20 mg/ml), isopropanol (8.5 mg/ml) or acetone (9.6 mg/ml). The figures in brackets indicate the estimated solubility of the salt in these solvents. The vial was then sealed and the suspension was homogenised at ambient temperature (20° C.) using a magnet. Stirring and temperature were maintained for a period of at least 7 days after which time a sample of the material obtained was dried and tested by XRPD. XRPD confirmed that there had been complete transformation of Form A to Form B.
smiles,measurement,setting,value
"CC(=O)Nc1ccc(O)cc1OC[C@@](C)(O)CNC1CCN(Cc2ccc(Cl)cc2)CC1 [Form B salt, N-{2-[((2S)-3-{[1-(4-chlorobenzyl)piperidin-4-yl]amino}-2-hydroxy-2-methylpropyl)oxy]-4-hydroxyphenyl}acetamide benzoate]",Normalized FPF (mean FPF Form B salt/mean FPF Pulmicort Turbuhaler formulation),[1],164%^a
same,FPF compared with Pulmicort Turbuhaler formulation,[1]; in words,generally higher
same,de-aggregation properties (conclusion),[1]; in words,advantageous de-aggregation properties
same,FPD (fine particle dose),[1]; mean of doses,182 µg
same,MMAD (mass median aerodynamic diameter),[1]; mean of doses,2.16 μm
same,MMAD (mass median aerodynamic diameter),"[1]; single dose, airflow pulse 0.4 seconds, 60 lpm",2.28 μm and 2.12 μm and 2.20 μm and 2.10 μm and 2.11 μm
same,Water Uptake (% w/w) at 80% RH,[2]; listed as Anhydrous Form B,<0.8 % w/w
CC(=O)Nc1ccc(O)cc1OC[C@@](C)(O)CNC1CCN(Cc2ccc(Cl)cc2)CC1 [N-{2-[((2S)-3-{[1-(4-chlorobenzyl)piperidin-4-yl]amino}-2-hydroxy-2-methylpropyl)oxy]-4-hydroxyphenyl}acetamide ditrifluoroacetate],IC50,human CCR1,< 50 nM
"CC(=O)Nc1ccc(O)cc1OC[C@@](C)(O)CNC1CCN(Cc2ccc(Cl)cc2)CC1 [Form A, N-{2-[((2S)-3-{[1-(4-chlorobenzyl)piperidin-4-yl]amino}-2-hydroxy-2-methylpropyl)oxy]-4-hydroxyphenyl}acetamide benzoate]",Water Uptake (% w/w) at 80% RH,[2]; listed as Anhydrous Form A,<2 % w/w
same,estimated solubility,[3]; acetone,9.6 mg/mL
same,solubility,[3]; ethanol,> 20 mg/mL
same,estimated solubility,[3]; isopropanol,8.5 mg/mL
same,solubility,[3]; methanol,> 20 mg/mL
same,solubility,[3]; n-propanol,> 20 mg/mL
